Laboratory results taken from publication PMC6072100, “Exploring the links between peptoid antibacterial activity and toxicity” (MedChemComm, 2017).
Square brackets hold non-standard residues; d marks the D form. Peptide text beside a SMILES is read from it. Gly(N-(CH2)6NH2) = NCCCCCCNCC(=O)O; Gly(N-2-aminoethyl) = NCCNCC(=O)O; Nspe = C[C@H](NCC(=O)O)c1ccccc1; Nphe = O=C(O)CNCc1ccccc1; Nlys = NCCCCNCC(=O)O

Key:
[1] = tested on: E. coli, P. aeruginosa, S. aureus and S. epidermidis; format: cell-based
How it was run: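 Broth microdilution MIC in Iso-sensitest broth; inoculum adjusted to A650 0.07 (0.5 McFarland) then diluted ten-fold. Peptoids from DMSO stock at final 2–100 μM (2-fold series), 37 °C for 16 h with shaking; growth read by absorbance, triplicate, ampicillin and DMSO controls.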

[2] = set-up: method as in PMID 18287037; conditions: cited from earlier work
[3] = tested on: NIH 3T3 murine fibroblasts; set-up: method as in PMID 26849681; conditions: in vitro mammalian assays; cited from earlier work

Compound | MICs against the bacteria tested [1] [µM] | 50% haemolytic dose (HD50) [2] [µM] | observed toxicity against NIH 3T3 murine fibroblasts [3] [µM]
NCCCCCCNCC(=O)N(CC(=O)N(CC(=O)N(CCCCCCN)CC(=O)N(CC(=O)N(CC(N)=O)Cc1ccccc1)Cc1ccccc1)Cc1ccccc1)Cc1ccccc1 [Peptoid 3, (NahNpheNphe)2] (H-[Gly(N-(CH2)6NH2)][Nphe][Nphe][Gly(N-(CH2)6NH2)][Nphe][Nphe]-NH2) | 100 | – | –
NCCCCNCC(=O)N(CC(=O)N(CC(=O)N(CCCCN)CC(=O)N(CC(=O)N(CC(N)=O)Cc1ccccc1)Cc1ccccc1)Cc1ccccc1)Cc1ccccc1 [Peptoid 6, (NLysNpheNphe)2] (H-[Nlys][Nphe][Nphe][Nlys][Nphe][Nphe]-NH2) | 100 | – | –
NCCNCC(=O)N(CC(=O)N(CC(=O)N(CCN)CC(=O)N(CC(=O)N(CC(N)=O)Cc1ccccc1)Cc1ccccc1)Cc1ccccc1)Cc1ccccc1 [Peptoid 9, (NaeNpheNphe)2] (H-[Gly(N-2-aminoethyl)][Nphe][Nphe][Gly(N-2-aminoethyl)][Nphe][Nphe]-NH2) | 100 | – | –
C[C@@H](c1ccccc1)N(CC(N)=O)C(=O)CN(C(=O)CN(CCCCCCN)C(=O)CN(C(=O)CN(C(=O)CNCCCCCCN)[C@@H](C)c1ccccc1)[C@@H](C)c1ccccc1)[C@@H](C)c1ccccc1 [Peptoid 12, (NahNspeNspe)2] | 100 | – | –
C[C@@H](c1ccccc1)N(CC(N)=O)C(=O)CN(C(=O)CN(CCCCN)C(=O)CN(C(=O)CN(C(=O)CN(CCCCN)C(=O)CN(C(=O)CN(C(=O)CN(CCCCN)C(=O)CN(C(=O)CN(C(=O)CNCCCCN)[C@@H](C)c1ccccc1)[C@@H](C)c1ccccc1)[C@@H](C)c1ccccc1)[C@@H](C)c1ccccc1)[C@@H](C)c1ccccc1)[C@@H](C)c1ccccc1)[C@@H](C)c1ccccc1 [Peptoid 13, (NLysNspeNspe)4] (H-[Nlys][Nspe][Nspe][Nlys][Nspe][Nspe][Nlys][Nspe][Nspe][Nlys][Nspe][Nspe]-NH2) | – | 100 | 5.1
C[C@@H](c1ccccc1)N(CC(N)=O)C(=O)CN(C(=O)CN(CCCCN)C(=O)CN(C(=O)CN(C(=O)CNCCCCN)[C@@H](C)c1ccccc1)[C@@H](C)c1ccccc1)[C@@H](C)c1ccccc1 [Peptoid 15, (NLysNspeNspe)2] (H-[Nlys][Nspe][Nspe][Nlys][Nspe][Nspe]-NH2) | 100 | – | –
C[C@@H](c1ccccc1)N(CC(N)=O)C(=O)CN(C(=O)CN(CCN)C(=O)CN(C(=O)CN(C(=O)CNCCN)[C@@H](C)c1ccccc1)[C@@H](C)c1ccccc1)[C@@H](C)c1ccccc1 [Peptoid 18, (NaeNspeNspe)2] | 100 | – | –
